Toxic doses and inconclusive results are not listed. How the source made its calls: active means survival T/C of 150% or more; inactive means T/C below 125% in these data. Non-standard residues stand in square brackets, D forms with d. Residues, ends and D or L forms follow the SMILES beside them. ξ: configuration not given here. *: point of attachment. Cbz = O=C(OCc1ccccc1)*; ξV = CC(C)C(N)C(=O)O
Test system: CD2F1 mice, L1210 leukemia ip, survival T/C
Test: NCI In Vivo Anticancer Drug Screen. Data for tumor model L1210 Leukemia (intraperitoneal) in CD2F1 (CDF1) mice
Conditions: higher = longer survival
Method in brief: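 Implant tumor; dose compound or vehicle; measure endpoint in both groups; report treated divided by control.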

[1] = endpoint: mean survival time, dose: 100.0 mg/kg/injection, schedule: Q04DX003 (ip), vehicle: saline with Tween-80
[2] = endpoint: mean survival time, dose: 200.0 mg/kg/injection, schedule: Q04DX003 (ip), vehicle: saline with Tween-80
[3] = endpoint: mean survival time, dose: 400.0 mg/kg/injection, schedule: Q04DX003 (ip), vehicle: saline with Tween-80
[4] = endpoint: mean survival time, dose: 100.0 mg/kg/injection, schedule: Q01DX009 (ip), vehicle: saline with Tween-80
[5] = endpoint: mean survival time, dose: 200.0 mg/kg/injection, schedule: Q01DX009 (ip), vehicle: saline with Tween-80
[6] = endpoint: mean survival time, dose: 400.0 mg/kg/injection, schedule: Q01DX009 (ip), vehicle: saline with Tween-80
[7] = endpoint: mean survival time, dose: 100.0 mg/kg/injection, schedule: Q01DX001 (ip), vehicle: Klucel (hydroxypropylcellulose) (HPC)
[8] = endpoint: mean survival time, dose: 200.0 mg/kg/injection, schedule: Q01DX001 (ip), vehicle: Klucel (hydroxypropylcellulose) (HPC)
[9] = endpoint: mean survival time, dose: 400.0 mg/kg/injection, schedule: Q01DX001 (ip), vehicle: Klucel (hydroxypropylcellulose) (HPC)
[10] = endpoint: mean survival time, dose: 100.0 mg/kg/injection, schedule: Q01DX001 (ip), vehicle: saline
[11] = endpoint: mean survival time, dose: 200.0 mg/kg/injection, schedule: Q01DX001 (ip), vehicle: saline
[12] = endpoint: mean survival time, dose: 400.0 mg/kg/injection, schedule: Q01DX001 (ip), vehicle: saline
[13] = endpoint: mean survival time, dose: 100.0 mg/kg/injection, schedule: Q04DX003 (ip), vehicle: Klucel (hydroxypropylcellulose) (HPC)
[14] = endpoint: mean survival time, dose: 200.0 mg/kg/injection, schedule: Q04DX003 (ip), vehicle: Klucel (hydroxypropylcellulose) (HPC)
[15] = endpoint: mean survival time, dose: 100.0 mg/kg/injection, schedule: Q04DX003 (ip), vehicle: saline

Measured: T/C

Nc1cnc2nc(N)[nH]c(=O)c2c1
inactive: endpoint: mean survival time, dose: 100.0 mg/kg/injection, schedule: Q01DX009 (ip), vehicle: saline sonified 97 % of control | [1] 93 % of control | endpoint: mean survival time, dose: 200.0 mg/kg/injection, schedule: Q01DX009 (ip), vehicle: saline sonified 102 % of control | [2] 93 % of control | endpoint: mean survival time, dose: 400.0 mg/kg/injection, schedule: Q01DX009 (ip), vehicle: saline sonified 93 % of control | [3] 95 % of control

COc1cc(C(C2=C(O)c3ccccc3C(=O)C2=O)C2=C(O)c3ccccc3C(=O)C2=O)cc(Br)c1O
inactive: endpoint: mean survival time, dose: 100.0 mg/kg/injection, schedule: Q01DX009 (ip), vehicle: alcohol 101 % of control | endpoint: mean survival time, dose: 200.0 mg/kg/injection, schedule: Q01DX009 (ip), vehicle: alcohol 93 % of control

O=C(Nc1ccc(F)cc1)c1cccc(Cl)c1
inactive: [4] 98 % of control | [1] 94 % of control | [5] 90 % of control | [2] 94 % of control | [6] 96 % of control | [3] 95 % of control

COc1ccc(C(CC(=O)c2ccccc2)[Se]c2ccccc2)cc1 (stereo not given)
inactive: endpoint: median survival time, dose: 25.0 mg/kg/injection, schedule: Q01DX009 (ip), vehicle: Klucel (hydroxypropylcellulose) (HPC) 101 % of control | endpoint: median survival time, dose: 50.0 mg/kg/injection, schedule: Q01DX009 (ip), vehicle: Klucel (hydroxypropylcellulose) (HPC) 100 % of control | endpoint: median survival time, dose: 100.0 mg/kg/injection, schedule: Q01DX009 (ip), vehicle: Klucel (hydroxypropylcellulose) (HPC) 101 % of control | endpoint: median survival time, dose: 200.0 mg/kg/injection, schedule: Q01DX009 (ip), vehicle: Klucel (hydroxypropylcellulose) (HPC) 94 % of control

CC(=O)Nc1cc(S(=O)(=O)O)cc(N)c1O
inactive: [7] 114 % of control | [8] 103 % of control | [9] 106 % of control

O=C(OC1(c2ccccc2)C2C=CC1CC2)c1ccc([N+](=O)[O-])cc1 (stereo not given)
inactive: endpoint: mean survival time, dose: 50.0 mg/kg/injection, schedule: Q04DX002 (ip), vehicle: saline with Tween-80 102 % of control | endpoint: mean survival time, dose: 100.0 mg/kg/injection, schedule: Q04DX002 (ip), vehicle: saline with Tween-80 98 % of control | endpoint: mean survival time, dose: 200.0 mg/kg/injection, schedule: Q04DX002 (ip), vehicle: saline with Tween-80 95 % of control

CCCN(CCC)S(=O)(=O)c1ccc(NC(=O)OC(c2ccccc2)c2ccccc2)cc1
inactive: [10] 104 % of control | [11] 95 % of control | [12] 93 % of control

Nc1ccc(S(=O)(=O)c2ccc(N)c(S(N)(=O)=O)c2)cc1
inactive: [4] 92 % of control | [5] 91 % of control | [6] 100 % of control

[Cl][Cr][Cl].[NH-]CC[NH-].[NH-]CC[NH-]
inactive: endpoint: mean survival time, dose: 100.0 mg/kg/injection, schedule: Q04DX002 (ip), vehicle: saline 95 % of control | endpoint: mean survival time, dose: 200.0 mg/kg/injection, schedule: Q04DX002 (ip), vehicle: saline 95 % of control | endpoint: mean survival time, dose: 400.0 mg/kg/injection, schedule: Q04DX002 (ip), vehicle: saline 88 % of control

O=C(O)CCc1nc2ccccc2c(=O)n1Cc1ccccc1
inactive: [13] 106 % of control | [14] 98 % of control | endpoint: mean survival time, dose: 400.0 mg/kg/injection, schedule: Q04DX003 (ip), vehicle: Klucel (hydroxypropylcellulose) (HPC) 95 % of control

Cc1cccc2c1-c1c(C)cccc1CSC2
inactive: [4] 95 % of control | endpoint: mean survival time, dose: 100.0 mg/kg/injection, schedule: Q04DX003 (ip), vehicle: saline sonified 98 % of control | [5] 97 % of control | endpoint: mean survival time, dose: 200.0 mg/kg/injection, schedule: Q04DX003 (ip), vehicle: saline sonified 93 % of control | [6] 101 % of control | endpoint: mean survival time, dose: 400.0 mg/kg/injection, schedule: Q04DX003 (ip), vehicle: saline sonified 93 % of control

NC1CC[N-]CC1.NC1CC[N-]CC1.NC1CC[N-]CC1.NC1CC[N-]CC1.[Cl][Rh][Cl]
inactive: endpoint: mean survival time, dose: 6.25 mg/kg/injection, schedule: Q04DX003 (ip), vehicle: saline with Tween-80 98 % of control | endpoint: mean survival time, dose: 12.5 mg/kg/injection, schedule: Q04DX003 (ip), vehicle: saline with Tween-80 101 % of control | endpoint: mean survival time, dose: 25.0 mg/kg/injection, schedule: Q04DX003 (ip), vehicle: saline with Tween-80 95 % of control

Nc1ccc(NC(=S)Nc2ccc(N)cc2)cc1
inactive: endpoint: mean survival time, dose: 25.0 mg/kg/injection, schedule: Q04DX003 (ip), vehicle: Klucel (hydroxypropylcellulose) (HPC) 104 % of control | endpoint: mean survival time, dose: 50.0 mg/kg/injection, schedule: Q04DX003 (ip), vehicle: Klucel (hydroxypropylcellulose) (HPC) 106 % of control | [13] 98 % of control

C[N+]1(O)C2CCC1CC(O)C2 (stereo not given)
inactive: [7] 97 % of control | [8] 104 % of control | [9] 97 % of control

C=[CH][Pb]([CH]=C)([O]C(=O)C(C)C)[O]C(=O)C(C)C
inactive: endpoint: mean survival time, dose: 5.0 mg/kg/injection, schedule: Q01DX009 (ip), vehicle: saline with Tween-80 93 % of control | endpoint: mean survival time, dose: 10.0 mg/kg/injection, schedule: Q01DX009 (ip), vehicle: saline with Tween-80 95 % of control

Clc1ccc(CSC2=NCCN2)cc1
inactive: endpoint: mean survival time, dose: 12.5 mg/kg/injection, schedule: Q01DX009 (ip), vehicle: saline 87 % of control | endpoint: mean survival time, dose: 25.0 mg/kg/injection, schedule: Q01DX009 (ip), vehicle: saline 87 % of control | endpoint: mean survival time, dose: 50.0 mg/kg/injection, schedule: Q01DX009 (ip), vehicle: saline 90 % of control

CC(NC(=O)C(CSC(c1ccccc1)(c1ccccc1)c1ccccc1)NC(c1ccccc1)(c1ccccc1)c1ccccc1)C(=O)O (stereo not given)
inactive: endpoint: mean survival time, dose: 150.0 mg/kg/injection, schedule: Q01DX001 (ip), vehicle: saline 96 % of control

CC1=CCC2C(=O)NC(=O)C2C1 (stereo not given)
inactive: endpoint: mean survival time, dose: 50.0 mg/kg/injection, schedule: Q01DX009 (ip), vehicle: saline with Tween-80 96 % of control | [4] 104 % of control | [5] 104 % of control

Cc1cccc(Cl)c1NC(=O)Nc1cc(Cl)ccc1Oc1c(Cl)cc(Cl)cc1S(=O)(=O)O
inactive: [4] 90 % of control | [5] 90 % of control

CN(C)CCCNC/C=C\CNCCCN(C)C
inactive: [15] 101 % of control | endpoint: mean survival time, dose: 200.0 mg/kg/injection, schedule: Q04DX003 (ip), vehicle: saline 101 % of control

CCCCCCCCCCOc1ccc(/C=N\N=C\c2ccc(OCCCCCCCCCC)cc2)cc1
inactive: [1] 94 % of control | [2] 94 % of control | [3] 92 % of control

CCCCC1CCC(N)CC1 (stereo not given)
inactive: [15] 96 % of control

CC12NC(=O)NC1(C)NC(=O)N2 (stereo not given)
inactive: [4] 95 % of control | [5] 101 % of control | [6] 86 % of control

COC(=O)c1cc(C)c(C)cc1NC1OC(CO)C(O)C1O (stereo not given)
inactive: [10] 91 % of control | [11] 89 % of control | [12] 86 % of control

Brc1ccc([Si](c2ccccc2)(c2ccccc2)c2ccc(Br)cc2)cc1
inactive: [1] 102 % of control | [2] 108 % of control | [3] 106 % of control

CCOC(=O)CCCCCSc1nn(C2OC(COC(=O)c3ccccc3)C(OC(=O)c3ccccc3)C2OC(=O)c2ccccc2)c(=O)[nH]c1=O (stereo not given)
inactive: endpoint: mean survival time, dose: 12.5 mg/kg/injection, schedule: Q01DX005 (ip), vehicle: distilled water + Tween-80 101 % of control | endpoint: mean survival time, dose: 25.0 mg/kg/injection, schedule: Q01DX005 (ip), vehicle: distilled water + Tween-80 107 % of control | endpoint: mean survival time, dose: 50.0 mg/kg/injection, schedule: Q01DX005 (ip), vehicle: distilled water + Tween-80 95 % of control | endpoint: mean survival time, dose: 100.0 mg/kg/injection, schedule: Q01DX005 (ip), vehicle: distilled water + Tween-80 106 % of control | endpoint: mean survival time, dose: 200.0 mg/kg/injection, schedule: Q01DX005 (ip), vehicle: distilled water + Tween-80 107 % of control

COC(=O)C(NC(=O)CNC(=O)OCc1ccccc1)C(C)C (stereo not drawn) (Cbz-Gly-[ξV]-OMe)
inactive: [1] 100 % of control | [2] 97 % of control | [3] 99 % of control

CC1(O)C=CC(=O)C=C1
inactive: endpoint: median survival time, dose: 6.25 mg/kg/injection, schedule: Q01DX009 (ip), vehicle: water 91 % of control | endpoint: median survival time, dose: 12.5 mg/kg/injection, schedule: Q01DX009 (ip), vehicle: water 103 % of control | endpoint: median survival time, dose: 25.0 mg/kg/injection, schedule: Q01DX009 (ip), vehicle: water 122 % of control | endpoint: median survival time, dose: 50.0 mg/kg/injection, schedule: Q01DX009 (ip), vehicle: water 91 % of control

NC(=O)C(Cc1ccccc1)NC(=O)c1ccccc1 (stereo not given)
inactive: [4] 91 % of control

NNC(=O)c1nc2ccccc2s1
inactive: endpoint: mean survival time, dose: 37.5 mg/kg/injection, schedule: Q04DX003 (ip), vehicle: saline sonified 97 % of control | endpoint: mean survival time, dose: 75.0 mg/kg/injection, schedule: Q04DX003 (ip), vehicle: saline sonified 92 % of control | endpoint: mean survival time, dose: 150.0 mg/kg/injection, schedule: Q04DX003 (ip), vehicle: saline sonified 94 % of control

CCOC(=O)c1cnc2c(cnn2CC)c1N1CCCCC1
inactive: [13] 89 % of control | [14] 97 % of control
